Target: T1, human serum albumin (HSA) (Homo sapiens, UniProt P02768)
T1 construct: gene ALB; essentially fatty acid free HSA
Assay: intrinsic fluorescence quenching, double-log plot
Type: binding
Details: 300 K, phosphate buffer pH 7.4, 15 µM HSA, <2% DMSO
Source text: intrinsic fluorescence quenching, double-log plot on human serum albumin (HSA)

T1 sequence (P02768 25-609): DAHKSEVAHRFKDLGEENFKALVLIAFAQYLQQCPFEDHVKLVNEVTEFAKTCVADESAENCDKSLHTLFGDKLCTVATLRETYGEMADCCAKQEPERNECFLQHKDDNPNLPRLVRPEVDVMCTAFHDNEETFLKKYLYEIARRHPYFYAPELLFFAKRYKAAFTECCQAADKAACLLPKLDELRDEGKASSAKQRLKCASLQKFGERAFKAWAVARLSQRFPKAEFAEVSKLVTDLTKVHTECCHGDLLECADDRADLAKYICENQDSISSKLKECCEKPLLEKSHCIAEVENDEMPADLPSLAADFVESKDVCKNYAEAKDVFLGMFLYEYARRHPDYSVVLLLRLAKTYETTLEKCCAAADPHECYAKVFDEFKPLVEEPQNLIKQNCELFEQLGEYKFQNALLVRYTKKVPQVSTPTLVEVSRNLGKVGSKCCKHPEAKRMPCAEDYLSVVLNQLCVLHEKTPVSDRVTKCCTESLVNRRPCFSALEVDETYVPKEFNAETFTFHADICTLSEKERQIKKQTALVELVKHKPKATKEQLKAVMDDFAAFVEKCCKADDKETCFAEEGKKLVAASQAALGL

Row | SMILES | Kb
1 | COc1cc(O)c(CC=C(C)C)c(O)c1C(=O)/C=C/c1ccc(O)cc1 [compound 1, 3’-[3”,3”-dimethylallyl]-2’,4’,4-trihydroxy-6’-methoxychalcone] | 86240 M⁻¹
2 | COc1cc(O)c(CC=C(C)C)c(O)c1C(=O)CCc1ccc(O)cc1 [compound 2, α,β-dihydroxanthohumol] | 36350 M⁻¹
3 | COc1cc(O[C@@H]2O[C@H](CO)[C@@H](O)[C@H](O)[C@H]2O)c(CC=C(C)C)c(O)c1C(=O)/C=C/c1ccc(O)cc1 [compound 4, Xanthohumol 4’-O-β-D-glucopyranoside] | 32710 M⁻¹
4 | COc1cc(O[C@@H]2O[C@H](CO)[C@@H](OC)[C@H](O)[C@H]2O)c(CC=C(C)C)c(O)c1C(=O)/C=C/c1ccc(O)cc1 [compound 5, Xanthohumol 4’-O-β-D-(4’’’-O-methyl)glucopyranoside] | 4550 M⁻¹
5 | COc1cc(O[C@@H]2O[C@H](CO)[C@@H](O)[C@H](O)[C@H]2O)c(CC=C(C)C)c(O)c1C(=O)CCc1ccc(O)cc1 [compound 6, α,β-Dihydroxanthohumol 4’-O-β-D-glucopyranoside] | 4480 M⁻¹
6 | COc1cc(O[C@@H]2O[C@H](CO)[C@@H](OC)[C@H](O)[C@H]2O)c(CC=C(C)C)c(O)c1C(=O)CCc1ccc(O)cc1 [compound 7, α,β-Dihydroxanthohumol 4’-O-β-D-(4’’’-O-methyl)glucopyranoside] | 6110 M⁻¹

Results, then the compound that gave them:

Row | Kb | SMILES
7 | 14250 M⁻¹ | COc1cc(O)c(CC=C(C)C)c2c1C(=O)/C(=C/c1ccc(O)cc1)O2 [compound 3, (Z)-6,4’-dihydroxy-4-methoxy-7-prenylaurone]
8 | 4850 M⁻¹ | COc1cc(O[C@@H]2O[C@H](CO)[C@@H](O)[C@H](O)[C@H]2O)c(CC=C(C)C)c2c1C(=O)/C(=C/c1ccc(O)cc1)O2 [compound 8, (Z)-6,4’-Dihydroxy-4-methoxy-7-prenylaurone 6-O-β-D-glucopyranoside]
9 | 9150 M⁻¹ | COc1cc(O[C@@H]2O[C@H](CO)[C@@H](OC)[C@H](O)[C@H]2O)c(CC=C(C)C)c2c1C(=O)/C(=C/c1ccc(O)cc1)O2 [compound 9, (Z)-6,4’-Dihydroxy-4-methoxy-7-prenylaurone 6-O-β-D-(4’’’-O-methyl)glucopyranoside]
